Assay results as given in ChEMBL document CHEMBL2440076, “New triarylpyrazoles as broad-spectrum anticancer agents: design, synthesis, and biological evaluation” (Eur J Med Chem, 2013).

Tests used:
Format in all cases: functional
[1] = test system: HCT-15; test: Growth inhibition of human HCT15 cells assessed as cell growth at 3X10'-8 M after 48 hrs by sulforhodamine B assay; conditions: HCT-15, 48 h, read-out: Activity
[2] = test system: U-251; test: Growth inhibition of human U251 cells assessed as cell growth at 3X10'-6 M after 48 hrs by sulforhodamine B assay; conditions: U-251, 48 h, read-out: Activity
[3] = test system: KM12; test: Growth inhibition of human KM12 cells assessed as cell growth at 3X10'-7 M after 48 hrs by sulforhodamine B assay; conditions: KM12, 48 h, read-out: Activity
[4] = test system: HOP-92; test: Growth inhibition of human HOP92 cells assessed as cell growth at 3X10'-6 M after 48 hrs by sulforhodamine B assay; conditions: HOP-92, 48 h, read-out: Activity
[5] = test system: NCI-H322M; test: Growth inhibition of human NCI-H322M cells assessed as cell growth at 3X10'-9 M after 48 hrs by sulforhodamine B assay; conditions: read-out: Activity
[6] = test system: HCT-15; test: Growth inhibition of human HCT15 cells assessed as cell growth at 3X10'-9 M after 48 hrs by sulforhodamine B assay; conditions: HCT-15, 48 h, read-out: Activity
[7] = test system: NCI-H23; test: Growth inhibition of human NCI-H23 cells assessed as cell growth at 3X10'-5 M after 48 hrs by sulforhodamine B assay; conditions: NCI-H23, 48 h, read-out: Activity
[8] = test system: M14; test: Growth inhibition of human M14 cells assessed as cell growth at 3X10'-5 M after 48 hrs by sulforhodamine B assay; conditions: M14, 48 h, read-out: Activity
[9] = test system: SK-OV-3; test: Growth inhibition of human SKOV3 cells assessed as cell growth at 3X10'-5 M after 48 hrs by sulforhodamine B assay; conditions: SK-OV-3, 48 h, read-out: Activity
[10] = test system: PC-3; test: Growth inhibition of human PC3 cells assessed as cell growth at 3X10'-6 M after 48 hrs by sulforhodamine B assay; conditions: PC-3, 48 h, read-out: Activity
[11] = test system: HCT-116; test: Growth inhibition of human HCT116 cells assessed as cell growth at 3X10'-8 M after 48 hrs by sulforhodamine B assay; conditions: HCT-116, 48 h, read-out: Activity
[12] = test system: OVCAR-4; test: Growth inhibition of human OVCAR4 cells assessed as cell growth at 3X10'-5 M after 48 hrs by sulforhodamine B assay; conditions: OVCAR-4, 48 h, read-out: Activity
[13] = test system: SNB-19; test: Growth inhibition of human SNB19 cells assessed as cell growth at 3X10'-9 M after 48 hrs by sulforhodamine B assay; conditions: SNB-19, 48 h, read-out: Activity
[14] = test system: ACHN; test: Growth inhibition of human ACHN cells assessed as cell growth at 3X10'-9 M after 48 hrs by sulforhodamine B assay; conditions: read-out: Activity
[15] = test system: MDA-MB-468; test: Growth inhibition of human MDA-MB-468 cells assessed as cell growth at 3X10'-9 M after 48 hrs by sulforhodamine B assay; conditions: MDA-MB-468, 48 h, read-out: Activity
[16] = test system: CCRF-CEM; test: Growth inhibition of human CCRF-CEM cells assessed as cell growth at 3X10'-9 M after 48 hrs by sulforhodamine B assay; conditions: read-out: Activity
[17] = test system: SW-620; test: Growth inhibition of human SW620 cells assessed as cell growth at 3X10'-5 M after 48 hrs by sulforhodamine B assay; conditions: SW-620, 48 h, read-out: Activity
[18] = Growth inhibition of human NCI-ADR-RES cells assessed as cell growth at 3X10'-5 M after 48 hrs by sulforhodamine B assay; conditions: read-out: Activity
[19] = test system: SN12C; test: Growth inhibition of human SN12C cells assessed as cell growth at 3X10'-5 M after 48 hrs by sulforhodamine B assay; conditions: read-out: Activity
[20] = test system: MDA-MB-231; test: Growth inhibition of human MDA-MB-231 cells assessed as cell growth at 3X10'-8 M after 48 hrs by sulforhodamine B assay; conditions: MDA-MB-231, 48 h, read-out: Activity
[21] = test system: OVCAR-5; test: Growth inhibition of human OVCAR5 cells assessed as cell growth at 3X10'-8 M after 48 hrs by sulforhodamine B assay; conditions: OVCAR-5, 48 h, read-out: Activity
[22] = test system: SK-OV-3; test: Growth inhibition of human SKOV3 cells assessed as cell growth at 3X10'-8 M after 48 hrs by sulforhodamine B assay; conditions: SK-OV-3, 48 h, read-out: Activity
[23] = test system: IGROV-1; test: Growth inhibition of human IGROV1 cells assessed as cell growth at 3X10'-9 M after 48 hrs by sulforhodamine B assay; conditions: IGROV-1, 48 h, read-out: Activity
[24] = test system: IGROV-1; test: Growth inhibition of human IGROV1 cells assessed as cell growth at 3X10'-8 M after 48 hrs by sulforhodamine B assay; conditions: IGROV-1, 48 h, read-out: Activity
[25] = test system: SK-OV-3; test: Growth inhibition of human SKOV3 cells assessed as cell growth at 3X10'-6 M after 48 hrs by sulforhodamine B assay; conditions: SK-OV-3, 48 h, read-out: Activity
[26] = test system: SF-295; test: Growth inhibition of human SF295 cells assessed as cell growth at 3X10'-9 M after 48 hrs by sulforhodamine B assay; conditions: SF-295, 48 h, read-out: Activity
[27] = test system: MDA-MB-468; test: Growth inhibition of human MDA-MB-468 cells assessed as cell growth at 3X10'-7 M after 48 hrs by sulforhodamine B assay; conditions: MDA-MB-468, 48 h, read-out: Activity
[28] = test system: RXF 393; test: Growth inhibition of human RXF393 cells assessed as cell growth at 3X10'-9 M after 48 hrs by sulforhodamine B assay; conditions: RXF 393, 48 h, read-out: Activity
[29] = Growth inhibition of human HCC2998 cells assessed as cell growth at 3X10'-6 M after 48 hrs by sulforhodamine B assay; conditions: HCC 2998, 48 h, read-out: Activity
[30] = test system: SF-539; test: Growth inhibition of human SF539 cells assessed as cell growth at 3X10'-6 M after 48 hrs by sulforhodamine B assay; conditions: SF-539, 48 h, read-out: Activity
[31] = test system: CCRF-CEM; test: Growth inhibition of human CCRF-CEM cells assessed as cell growth at 3X10'-7 M after 48 hrs by sulforhodamine B assay; conditions: read-out: Activity
[32] = test system: K562; test: Growth inhibition of human K562 cells assessed as cell growth at 3X10'-7 M after 48 hrs by sulforhodamine B assay; conditions: K562, 48 h, read-out: Activity
[33] = test system: DU-145; test: Growth inhibition of human DU145 cells assessed as cell growth at 3X10'-5 M after 48 hrs by sulforhodamine B assay; conditions: DU-145, 48 h, read-out: Activity
[34] = test system: KM12; test: Growth inhibition of human KM12 cells assessed as cell growth at 3X10'-8 M after 48 hrs by sulforhodamine B assay; conditions: KM12, 48 h, read-out: Activity
[35] = test system: SK-MEL-5; test: Growth inhibition of human SK-MEL-5 cells assessed as cell growth at 3X10'-5 M after 48 hrs by sulforhodamine B assay; conditions: SK-MEL-5, 48 h, read-out: Activity
[36] = test system: SW-620; test: Growth inhibition of human SW620 cells assessed as cell growth at 3X10'-8 M after 48 hrs by sulforhodamine B assay; conditions: SW-620, 48 h, read-out: Activity
[37] = Growth inhibition of human NCI-ADR-RES cells assessed as cell growth at 3X10'-7 M after 48 hrs by sulforhodamine B assay; conditions: read-out: Activity

Structure (SMILES) | growth at 0.03 µM [1] [%] | growth at 3 µM [2] [%] | growth at 0.3 µM [3] [%] | growth at 0.003 µM [5] [%] | growth at 0.003 µM [6] [%] | growth at 30 µM [7] [%] | growth at 30 µM [8] [%] | growth at 3 µM [10] [%] | growth at 0.03 µM [11] [%] | growth at 30 µM [12] [%] | growth at 0.003 µM [13] [%] | growth at 0.003 µM [14] [%] | growth at 0.003 µM [15] [%] | growth at 0.003 µM [16] [%] | growth at 30 µM [17] [%] | growth at 30 µM [18] [%] | growth at 30 µM [19] [%] | growth at 0.03 µM [20] [%] | growth at 0.03 µM [21] [%] | growth at 0.03 µM [22] [%] | also measured
O=C(Nc1cccc(-n2cc(-c3ccncc3)c(-c3ccc(Cl)c(O)c3)n2)c1)Nc1cccc(C(F)(F)F)c1 | 100 | 29 | 97 | 95 | 95 | 6 | -20 | 13 | 97 | 16 | 94 | 103 | 95 | 97 | 8 | 7 | 16 | 101 | 100 | 96 | growth at 3 µM [4]: -13%; growth at 30 µM [9]: 15%; growth at 0.003 µM [23]: 98%; growth at 0.03 µM [24]: 98%; growth at 3 µM [25]: 58%; growth at 0.003 µM [26]: 94%; growth at 0.3 µM [27]: 81%; growth at 0.003 µM [28]: 96%; growth at 3 µM [29]: 76%; growth at 3 µM [30]: 54%; growth at 0.3 µM [31]: 94%; growth at 0.3 µM [32]: 101%; growth at 30 µM [33]: 9%; growth at 0.03 µM [34]: 95%; growth at 30 µM [35]: -90%; growth at 0.03 µM [36]: 95%; growth at 0.3 µM [37]: 98%
COc1cc(-c2nn(-c3cccc(NC(=O)c4ccc(Cl)c(C(F)(F)F)c4)c3)cc2-c2ccncc2)ccc1Cl | 99 | 49 | 95 | 91 | 99 | 17 | 19 | 31 | 101 | 32 | 95 | 99 | 89 | 96 | 24 | -19 | 35 | 97 | 96 | 100 | growth at 30 µM [9]: 24%; growth at 0.003 µM [23]: 94%; growth at 0.03 µM [24]: 89%; growth at 3 µM [25]: 71%; growth at 0.003 µM [26]: 92%; growth at 0.3 µM [27]: 89%; growth at 0.003 µM [28]: 99%; growth at 3 µM [29]: 63%; growth at 3 µM [30]: 57%; growth at 0.3 µM [31]: 101%; growth at 0.3 µM [32]: 115%; growth at 30 µM [33]: 10%; growth at 0.03 µM [34]: 96%; growth at 30 µM [35]: -51%; growth at 0.03 µM [36]: 97%; growth at 0.3 µM [37]: 91%
O=C(Nc1cccc(-n2cc(-c3ccncc3)c(-c3ccc(Cl)c(O)c3)n2)c1)Nc1ccc(Cl)c(Cl)c1 | 103 | 25 | 90 | 95 | 102 | -1 | -28 | 6 | 100 | 17 | 98 | 103 | 90 | 91 | 1 | 6 | 3 | 100 | 96 | 99 | growth at 3 µM [4]: -26%; growth at 0.003 µM [23]: 103%; growth at 0.03 µM [24]: 104%; growth at 3 µM [25]: 13%; growth at 0.3 µM [27]: 76%; growth at 0.003 µM [28]: 96%; growth at 3 µM [29]: 47%; growth at 3 µM [30]: 27%; growth at 0.3 µM [31]: 90%; growth at 0.3 µM [32]: 110%; growth at 30 µM [33]: 9%; growth at 0.03 µM [34]: 92%; growth at 30 µM [35]: -95%; growth at 0.03 µM [36]: 98%; growth at 0.3 µM [37]: 102%
